Like-named read-outs stand apart in the source and are kept apart here.

Among the data in PMC11721617, “Novel isobavachalcone derivatives induce apoptosis and necroptosis in human non-small cell lung cancer H1975 cells” (Journal of Enzyme Inhibition and Medicinal Chemistry, 2023) are IC50 values, retold here.

One data set concerns A549. Kind of data set: MTT assay, cytotoxic activity. Conditions: Homo sapiens; A549 cells, 72 h, MTT. Type of data set: cell-based, human. Here is the method:
(§1) Four cell lines (H1975, A549, PC9, and Aml-12) were cultured in RPMI 1640 medium containing 10% foetal bovine serum (FBS) and 1% penicillin/streptomycin in an atmosphere with 5% CO2 and 95% relative humidity at 37 °C.
(§2) Cell viability was examined using the MTT assay. The cells grown in the logarithmic phase were seeded in 96-well plates at a density of 5 × 10^3 per well. The cells were treated with various concentrations (0, 5, 10, 20, 40, and 80 μM) of the compound at different times, respectively. At the end of time point, MTT solution (5 mg/ml) was added to each well and incubated at 37 °C for 4 h. Next, the media was removed, and formazan was dissolved in DMSO. Finally, absorbance was measured with a microplate spectrophotometer at 490 nm (Synergy HT, BioTek, VT, USA).

Another data set relates to PC9. Kind of data set: MTT assay, cytotoxic activity. Conditions: Homo sapiens, PC-9, PC9 cells, 72 h. Type of data set: cell-based. Here is the method: as §1, §2
In general terms: Tetrazolium dyes change colour on reduction, which living cells bring about.

The next data set relates to H1975. Kind of data set: MTT assay, cytotoxic activity / cell viability. Type of data set: cell-based, human. Conditions: Homo sapiens, NCI-H1975. How it is done:
as §1, §2

Data set [1] is described as follows: MTT assay, cytotoxic activity on normal hepatocytes. Type of data set: cell-based, mouse. Conditions: Aml-12 cells (normal hepatocytes); normal mouse hepatocytes Aml-12 cells, 72 h. How it is done: as §1, §2
Setting [2] is: H1975 cells, 72 h, MTT, read-out: Cytotoxic activity IC50, H1975.

For the molecule `COc1ccc(/C=C/C(=O)c2ccc(O)c(CC=C(C)C)c2O)cc1` [Compound 1, (E)-1-(2,4-Dihydroxy-3-(3-methylbut-2-en-1-yl)phenyl)-3-(4-methoxyphenyl)prop-2-en-1-one], the concentration for half-maximal inhibition (IC50) with A549 is 41.6 µM; with PC9, 14.3 µM; with H1975 (setting [2]), 38 µM.
In the case of `COc1ccc(C(=O)/C=C/c2ccc(O)cc2)c(O)c1CC=C(C)C` [Compound 2, (E)-1-(2-Hydroxy-4-methoxy-3-(3-methylbut-2-en-1-yl)phenyl)-3-(4-hydroxyphenyl) prop-2-en-1-one], the IC50 with A549 was > 50 µM; with PC9, 35.3 µM; in the data set on H1975 (setting [2]) it was 40.5 µM.
As to `COc1ccc(/C=C/C(=O)c2ccc(OC)c(CC=C(C)C)c2O)cc1` [Compound 3, (E)-1-(2-Hydroxy-4-methoxy-3-(3-methylbut-2-en-1-yl)phenyl)-3-(4-methoxyphenyl) prop-2-en-1-one], the IC50 in the data set on A549, with PC9 and in the data set on H1975 (setting [2]) was > 50 µM in each case.
As to `CC(C)=CCc1c(OCc2ccccc2)ccc(C(=O)/C=C/c2ccc(OCc3ccccc3)cc2)c1O` [Compound 4, (E)-1-(4-(Benzyloxy)-2-hydroxy-3-(3-methylbut-2-en-1-yl)phenyl)-3-(4-(benzyl-oxy)phenyl)prop-2-en-1-one], the IC50 in the data set with A549, in the data set on PC9 and in the data set on H1975 (setting [2]) was > 50 µM in each case.
For the molecule `CC(C)=CCc1c(O)ccc(C(=O)/C=C/c2ccc(OCc3ccccc3)cc2)c1O` [Compound 5, (E)-3-(4-(Benzyloxy)phenyl)-1-(2,4-dihydroxy-3-(3-methylbut-2-en-1-yl)phenyl)prop-2-en-1-one], the concentration for half-maximal inhibition (IC50) was found to be 33.1 µM in the data set on A549, 24.9 µM with PC9 and 13.6 µM in the data set on H1975 (setting [2]).
Turning to `CC(C)=CCc1c(O)c(C=O)cc(C(=O)/C=C/c2ccc(O)cc2)c1O` [Compound 6, (E)-2,4-Dihydroxy-5-(3-(4-hydroxyphenyl)acryloyl)-3-(3-methylbut-2-en-1-yl)benzylaldehyde], the IC50 in the data set with A549 is 24.1 µM; in the data set with PC9 it was 18.4 µM; in the data set with H1975 (setting [2]) it was 5.79 µM.
Consider `CC(C)=CCc1c(O)c(/C=N/NC(=N)N)cc(C(=O)/C=C/c2ccc(O)cc2)c1O` [Compound 7, 2-((E)-2,4-Dihydroxy-5-((E)-3-(4-hydroxyphenyl)acryloyl)-3-(3-methylbut-2-en-1-yl)benzylidene)hydrazine-1-carboximidamide], for which the IC50 was 15 µM with A549; 8.3 µM with PC9; 7.33 µM in the data set on H1975 (setting [2]); 4.35 to 15 µM in the data set with H1975 (read-out: IC50 values against H1975 and A549 cell lines (range over both)).
Regarding `CC(C)=CCc1c(O)c(C(=O)/C=C/c2ccc(O)cc2)cc(C(c2ccncc2)N2CCOCC2)c1O` (stereo not drawn) [Compound 8, (E)-1-(2,4-Dihydroxy-3-(3-methylbut-2-en-1-yl)-5-(morpholino(pyridin-4-yl)methyl)phenyl)-3-(4-hydroxyphenyl)prop-2-en-1-one], the IC50 in the data set with A549 was determined as 39.2 µM; in the data set on PC9 it was 29.9 µM; with H1975 (setting [2]) it was 13.8 µM.
On the same counts, the results for `CC(C)=CCc1c(O)c(C(=O)/C=C/c2ccc(O)cc2)cc(C(c2ccccc2)N2CCOCC2)c1O` (stereo not drawn) [Compound 9, (E)-1-(2,4-Dihydroxy-3-(3-methylbut-2-en-1-yl)-5-(morpholino(phenyl)methyl)phenyl)-3-(4-hydroxyphenyl)prop-2-en-1-one] are 26.9 µM, 22.8 µM and 12.1 µM.
For the molecule `CC(C)=CCc1c(O)c(C(=O)/C=C/c2ccc(O)cc2)cc(C(c2ccc(Br)cc2)N2CCOCC2)c1O` (stereo not drawn) [Compound 10, (E)-1-(5-((4-Bromophenyl)(morpholino)methyl)-2,4-dihydroxy-3-(3-methylbut-2-en-1-yl)phenyl)-3-(4-hydroxyphenyl)prop-2-en-1-one], the IC50 in the data set with A549 is 34.8 µM; in the data set with PC9 it was 18.6 µM; with H1975 (setting [2]) it was 6.76 µM.
Take `CC(C)=CCc1c(O)c(C(=O)/C=C/c2ccc(O)cc2)cc(C(c2ccc(Cl)cc2)N2CCOCC2)c1O` (stereo not drawn) [Compound 11, (E)-1-(5-((4-Chlorophenyl)(morpholino)methyl)-2,4-dihydroxy-3-(3-methylbut-2-en-1-yl)phenyl)-3-(4-hydroxyphenyl)prop-2-en-1-one]: the IC50 in the data set on A549 worked out at 21.8 µM; in the data set with PC9 it was 19.7 µM; with H1975 (setting [2]), 11.4 µM.
On to `CC(C)=CCc1c(O)c(C(=O)/C=C/c2ccc(O)cc2)cc(C(c2ccc(F)cc2)N2CCOCC2)c1O` (stereo not drawn) [Compound 12, (E)-1-(5-((4-Fluorophenyl)(morpholino)methyl)-2,4-dihydroxy-3-(3-methylbut-2-en-1-yl)phenyl)-3-(4-hydroxyphenyl)prop-2-en-1-one], for which the half-inhibitory concentration (IC50) in the data set with A549 is 33 µM; in the data set with PC9, 20.7 µM; in the data set on H1975 (setting [2]), 12.1 µM.
Take `CC(C)=CCc1c(O)c(C(=O)/C=C/c2ccc(O)cc2)cc(C(c2ccc([N+](=O)[O-])cc2)N2CCOCC2)c1O` (stereo not drawn) [Compound 13, (E)-1-(2,4-Dihydroxy-3-(3-methylbut-2-en-1-yl)-5-(morpholino(4-nitrophenyl)methyl)phenyl)-3-(4-hydroxyphenyl)prop-2-en-1-one]: the half-inhibitory concentration (IC50) in the data set on A549 stood at 44.5 µM; in the data set on PC9 it was 23.5 µM; in the data set with H1975 (setting [2]), 7.39 µM.
For `CC(C)=CCc1c(O)c(C(=O)/C=C/c2ccc(O)cc2)cc(C(c2ccc(C(=O)O)cc2)N2CCOCC2)c1O` (stereo not drawn) [Compound 14, (E)-4-((2,4-Dihydroxy-5-(3-(4-hydroxyphenyl)acryloyl)-3-(3-methylbut-2-en-1-yl)phenyl)(morpholino)methyl)benzoic acid], the IC50 in the data set on A549 is > 50 µM; in the data set on PC9, > 50 µM; in the data set with H1975 (setting [2]), 23.6 µM.
For the molecule `COc1ccc(C(c2cc(C(=O)/C=C/c3ccc(O)cc3)c(O)c(CC=C(C)C)c2O)N2CCOCC2)cc1` (stereo not drawn) [Compound 15, (E)-1-(2,4-Dihydroxy-5-((4-methoxyphenyl)(morpholino)methyl)-3-(3-methylbut-2-en-1-yl)phenyl)-3-(4-hydroxyphenyl)prop-2-en-1-one], the IC50 in the data set with A549 is 28.9 µM; in the data set with PC9 it was 23.2 µM; with H1975 (setting [2]) it was 11.7 µM.
Regarding `CC(C)=CCc1c(O)c(C(=O)/C=C/c2ccc(O)cc2)cc(C(c2ccc(C(F)(F)F)cc2)N2CCOCC2)c1O` (stereo not drawn) [Compound 17, (E)-1-(2,4-Dihydroxy-3-(3-methylbut-2-en-1-yl)-5-(morpholino(4-(trifluoromethyl)phenyl)methyl)phenyl)-3-(4-hydroxyphenyl)prop-2-en-1-one], the half-inhibitory concentration (IC50) with A549 amounted to 30.1 µM; in the data set on PC9 it was 20.6 µM; with H1975 (setting [2]), 7.01 µM.
In the case of `CC(C)=CCc1c(O)ccc(C(=O)/C=C/c2ccc(O)cc2)c1O` [IBC, isobavachalcone], the half-inhibitory concentration (IC50) with A549 was 21.7 µM; in the data set on PC9, 9.22 µM; in the data set with H1975 (setting [2]), 17.9 µM. Moreover, the IC50 at 72 h in data set [1] turned out to be 17.7 ± 1.2 µM.
`CC(=O)O[C@H]1C(=O)[C@@]2(C)[C@H]([C@H](OC(=O)c3ccccc3)[C@]3(O)C[C@H](OC(=O)[C@H](O)[C@@H](NC(=O)c4ccccc4)c4ccccc4)C(C)=C1C3(C)C)[C@]1(OC(C)=O)CO[C@@H]1C[C@@H]2O` [Paclitaxel, reference compound]: the values for the IC50 with A549, in the data set on PC9 and in the data set with H1975 (setting [2]) were 1.61 µM, 0.06 µM and 0.01 µM, respectively. Besides, in data set [1], the IC50 at 72 h was found to be 2.51 ± 0.13 µM.

The IC50 is the concentration needed to halve the response being measured.
